Assays:
[1] = tested on: A2058 human melanoma cells; assay: LPA1 chemotaxis assay; assay type: cell-based; details: 100 nM LPA, read-out: inhibition of LPA-driven chemotaxis, IC50
Description: Chemotaxis of the A2058 human melanoma cells was measured using the Neuroprobe ChemoTx® System plates (8 μm pore size, 5.7 mm diameter sites). The filter sites were coated with 0.001% fibronectin (Sigma) in 20 mM Hepes, pH 7.4 and allowed to dry. A2058 cells were serum-starved for 24 hours, then harvested with Cell Stripper and resuspended in DMEM containing 0.1% fatty-acid-free bovine serum albumin (BSA) to a concentration of 1×10^6/ml. Cells were mixed with an equal volume of test compound (2×) in DMEM containing 0.1% fatty-acid-free BSA and incubated at 37° C. for 15 minutes. LPA (100 nM in DMEM containing 0.1% fatty-acid-free BSA) or vehicle was added to each well of the lower chamber and 50 μl of the cell suspension/test compound mix was applied to the upper portion of the ChemoTx plate. Plates were incubated at 37° C. for three hours and then the cells removed from the upper portion by rinsing with PBS and scraping. The filter was dried then stained with HEMA 3 Staining System (Fisher Scientific). The absorbance of the filter was read at 590 nm and IC50s were determined using Symyx Assay Explorer.

human LPA1 = target: T1, human LPA1 (Homo sapiens, UniProt Q92633); assay: LPA1 calcium flux assay (HLPA1 Ca Flux); assay type: cell-based; details: CHO cells stably expressing human LPA1, stimulated with 10 nM LPA
T1 construct: the full-length cDNA for human LPA1 was obtained by PCR of the reverse transcription reaction; expressed in transfected cells
T1 sequence (Q92633 whole entry): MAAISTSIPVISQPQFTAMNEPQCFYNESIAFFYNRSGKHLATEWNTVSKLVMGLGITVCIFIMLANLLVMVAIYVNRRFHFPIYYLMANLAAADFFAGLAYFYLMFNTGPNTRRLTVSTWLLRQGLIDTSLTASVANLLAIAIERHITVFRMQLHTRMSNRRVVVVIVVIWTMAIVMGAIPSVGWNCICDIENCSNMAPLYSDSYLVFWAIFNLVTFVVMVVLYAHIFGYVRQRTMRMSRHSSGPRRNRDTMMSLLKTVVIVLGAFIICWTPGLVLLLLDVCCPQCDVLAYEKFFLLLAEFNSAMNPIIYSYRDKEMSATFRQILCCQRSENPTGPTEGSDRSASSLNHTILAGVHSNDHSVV
Description: A 1.1 kb cDNA encoding the human LPA1 receptor was cloned from human lung. Human lung RNA (Clontech Laboratories, Inc. USA) was reverse transcribed using the RETROscript kit (Ambion, Inc.) and the full-length cDNA for human LPA1 was obtained by PCR of the reverse transcription reaction. The nucleotide sequence of the cloned human LPA1 was determined by sequencing and confirmed to be identical to the published human LPA1 sequence (An et al. Biochem. Biophys. Res. Commun. 231:619 (1997). The cDNA was cloned into the pcDNA5/FRT expression plasmid and transfected in CHO cells using lipofectamine 2000 (Invitrogen Corp., USA). Clones stably expressing human LPA1 were selected using hygromycin and identified as cells that show Ca-influx in response to LPA.
Human LPA1 or LPA3 expressing CHO cells are seeded at 20,000-45,000 cells per well in a 96-well poly-D-lysine coated plate one or two days before the assay. Prior to the assay, the cells are washed once with PBS and then cultured in serum-free media overnight. On the day of the assay, a calcium indicator dye (Calcium 4, Molecular Devices) in assay buffer (HBSS with Ca^2+ and Mg^2+ and containing 20 mM Hepes and 0.3% fatty-acid free human serum albumin) is added to each well and incubation continued for 1 hour at 37° C. […] of test compounds in 2.5% DMSO are added to the cells and incubation continued at room temperature for 30 minutes. Cells are the stimulated by the addition of 10 nM LPA and intracellular Ca^2+ measured using the Flexstation 3 (Molecular Devices). IC50s are determined using Graphpad prism analysis of drug titration curves.

[2] = tested on: highly peritoneal metastatic pancreatic cancer cell line; details: cited from earlier work
[3] = tested on: pancreatic cancer cell lines; details: cited from earlier work
LPA receptor = details: compared with LPA1 (−/−) mice, in which renal fibrosis was significantly attenuated; cited from earlier work

Row | IC50 [1] [µM] | IC50 (human LPA1) [µM] | Compound | other results
1 | < 0.1 | – | Cc1noc(-c2ccc(-c3ccc(C4(C(=O)O)CC4)cc3)cc2)c1C(O)COCc1ccccc1 (single isomer, unassigned) [Compound 47, 1-{4′-[4-(2-Benzyloxy-1-hydroxy-ethyl)-3-methyl-isoxazol-5-yl]-biphenyl-4-yl}-cyclopropanecarboxylic acid] | –
2 | < 0.1 | – | Cc1noc(-c2ccc(-c3ccc(C4(C(=O)O)CC4)cc3)cc2)c1NC(C)CCc1ccccc1 (single isomer, unassigned) [Compound 51, 1-{4′-[3-Methyl-4-(1-methyl-3-phenyl-propylamino)-isoxazol-5-yl]-biphenyl-4-yl}-cyclopropanecarboxylic acid] | –
3 | < 0.1 | – | Cc1noc(-c2ccc(-c3ccc(C4(C(=O)O)CC4)cc3)cc2)c1NC(C)CCc1cccc(Cl)c1 (single isomer, unassigned) [Compound 57, 1-(4′-{4-[3-(3-Chloro-phenyl)-1-methyl-propylamino]-3-methyl-isoxazol-5-yl}-biphenyl-4-yl)-cyclopropanecarboxylic acid] | –
4 | < 0.1 | – | Cc1noc(-c2ccc(-c3ccc(C4(C(=O)O)CC4)cc3)cc2)c1NC(C)CCc1ccccc1 (centres unmarked) [Compound 4, 1-{4′-[3-Methyl-4-(1-methyl-3-phenyl-propylamino)-isoxazol-5-yl]-biphenyl-4-yl}-cyclopropanecarboxylic acid] | –
5 | < 0.1 | < 0.3 | Cc1noc(-c2ccc(-c3ccc(C4(C(=O)O)CC4)cc3)cc2)c1CC(F)(F)CCc1ccccc1 [Compound 21, 1-{4′-[4-(2,2-Difluoro-4-phenyl-butyl)-3-methyl-isoxazol-5-yl]-biphenyl-4-yl}-cyclopropanecarboxylic acid] | –
6 | < 0.1 | < 0.3 | Cc1noc(-c2ccc(-c3ccc(C4(C(=O)O)CC4)cc3)cc2)c1NC(C)CCc1cccc(F)c1 (centres unmarked) [Compound 30, 1-(4′-{4-[3-(3-Fluoro-phenyl)-1-methyl-propylamino]-3-methyl-isoxazol-5-yl}-biphenyl-4-yl)-cyclopropanecarboxylic acid] | –
7 | < 0.1 | < 0.3 | Cc1noc(-c2ccc(-c3ccc(C4(C(=O)O)CC4)cc3)cc2)c1C(O)CSCc1ccccc1 (centres unmarked) [Compound 38, 1-{4′-[4-(2-Benzylsulfanyl-1-hydroxy-ethyl)-3-methyl-isoxazol-5-yl]-biphenyl-4-yl}-cyclopropanecarboxylic acid] | –
8 | < 0.1 | – | Cc1noc(-c2ccc(-c3ccc(C4(C(=O)O)CC4)cc3)cc2)c1NC(C)CCc1cccc(Cl)c1 (centres unmarked) [Compound 41, 1-(4′-{4-[3-(3-Chloro-phenyl)-1-methyl-propylamino]-3-methyl-isoxazol-5-yl}-biphenyl-4-yl)-cyclopropanecarboxylic acid] | –
9 | < 0.1 | – | Cc1noc(-c2ccc(-c3ccc(C4(C(=O)O)CC4)cc3)cc2)c1C(O)COCc1ccccc1 (centres unmarked) [Compound 42, 1-{4′-[4-(2-Benzyloxy-1-hydroxy-ethyl)-3-methyl-isoxazol-5-yl]-biphenyl-4-yl}-cyclopropanecarboxylic acid] | –
10 | < 0.1 | < 0.3 | Cc1noc(-c2ccc(-c3ccc(C4(C(=O)O)CC4)cc3)cc2)c1[C@H](O)CO[C@H](C)c1ccccc1 [Compound 49, 1-(4′-{4-[(5)-1-Hydroxy-2-((R)-1-phenyl-ethoxy)-ethyl]-3-methyl-isoxazol-5-yl}-biphenyl-4-yl)-cyclopropanecarboxylic acid] | –
11 | < 0.1 | < 0.3 | Cc1noc(-c2ccc(-c3ccc(C4(C(=O)O)CC4)cc3)cc2)c1NC(C)CCc1ccc(Cl)cc1 (centres unmarked) [Compound 54, 1-(4′-{4-[3-(4-Chloro-phenyl)-1-methyl-propylamino]-3-methyl-isoxazol-5-yl}-biphenyl-4-yl)-cyclopropanecarboxylic acid] | –
12 | < 0.1 | < 0.3 | Cc1noc(-c2ccc(-c3ccc(C4(C(=O)O)CC4)cc3)cc2)c1[C@H](O)CSCc1ccccc1 [Compound 65, 1-{4′-[4-((S)-2-Benzylsulfanyl-1-hydroxy-ethyl)-3-methyl-isoxazol-5-yl]-biphenyl-4-yl}-cyclopropanecarboxylic acid] | –
13 | < 0.1 | < 0.3 | Cc1noc(-c2ccc(-c3ccc(C4(C(=O)NS(C)(=O)=O)CC4)cc3)cc2)c1[C@H](O)CO[C@H](C)c1ccccc1 [Compound 72, N-[1-(4′-{4-[(S)-1-Hydroxy-2-((R)-1-phenyl-ethoxy)-ethyl]-3-methyl-isoxazol-5-yl]-biphenyl-4-yl)-cyclopropanecarbonyl}-methanesulfonamide] | –
14 | < 0.1 | < 0.3 | Cc1noc(-c2ccc(-c3ccc(C4(C(=O)NS(C)(=O)=O)CC4)cc3)cc2)c1[C@H](O)COCc1ccccc1 [Compound 73, N-(1-{4′-[4-((S)-2-Benzyloxy-1-hydroxy-ethyl)-3-methyl-isoxazol-5-yl]-biphenyl-4-yl}-cyclopropanecarbonyl)-methanesulfonamide] | –
15 | < 0.1 | < 0.3 | Cc1noc(-c2ccc(-c3ccc(C4(C(=O)NS(C)(=O)=O)CC4)cc3)cc2)c1C(O)C(F)(F)CCc1ccccc1 (centres unmarked) [Compound 76, N-(1-{4′-[4-(2,2-Difluoro-1-hydroxy-4-phenyl-butyl)-3-methyl-isoxazol-5-yl]-biphenyl-4-yl}-cyclopropanecarbonyl)-methanesulfonamide] | –
16 | < 0.1 | < 0.3 | Cc1noc(-c2ccc(-c3ccc(C4(C(=O)NS(C)(=O)=O)CC4)cc3)cc2)c1[C@H](O)CSCc1ccccc1 [Compound 77, N-(1-{4′-[4-((S)-2-Benzylsulfanyl-1-hydroxy-ethyl)-3-methyl-isoxazol-5-yl]-biphenyl-4-yl}-cyclopropanecarbonyl)-methanesulfonamide] | –
17 | – | – | Cc1noc(-c2ccc(CSCCC(=O)O)cc2)c1NC(=O)OC(C)c1ccccc1Cl (centres unmarked) [Ki16425] | LPA-induced and ascites-induced invasion activity [2]: blocked; in vitro migration in response to LPA and peritoneal fluid (ascites) from pancreatic cancer patients [3]: effectively blocked; development of renal fibrosis in UUO mice (LPA receptor): closely resembled the LPA1 (−/−) mice

Source: patent US8217066B2, “Compounds as lysophosphatidic acid receptor antagonists” (Amira Pharmaceuticals, Inc., priority 2009, dated 2012)
